Measured values from patent US6605297B2, “Substances having antiobese and visceral fat-reducing functions and utilization thereof” (Janiftec, Inc., priority 1998, dated 2003).

What was measured:
[1] = 7-week feeding study in rats: body weight, feed ingested, symptoms; assay type: in vivo, Sprague-Dawley male rats; settings: Example 3; 0.5% in feed plus 8.5% lard, rats 7 weeks
Protocol: (§1) After acclimation for 1 week on basic feed (F-2, Funabashi Farms Co., Ltd.) using 7-week-old Sprague-Dawley male rats, 7 rats per group were placed in the following 3 groups so that average body weight of each group would be the same and reared for 7 weeks. Rearing environment was adjusted to a temperature of 22 to 24° C. and humidity of 50 to 60%, with 12 hours of light and dark each (light time: 8:00 to 20:00, dark time: 20:00 to 8:00). Feed was supplied in restricted amounts and body weight was determined each week.
(§2) The components, including proteins, sugars, etc., were the same and the lipids were adjusted to 10% for each group. […]
(§3) After being reared for 7 weeks, the laboratory animals were fasted for 20 hours. […] Then mesenteric fat, perinephric fat, peritesticular fat, and interscapular brown fat were recovered and weighed and the brown fat was submitted to determinations of the amount of UCP. The plasma was obtained from blood by conventional methods and serum triglycerides, cholesterol, and phospholipid concentrations were determined. The amount of UCP was determined by the following method.
With the exception that 8.5% lard was added to 0.5% starting DHA ethyl ester and served as the control group, and 8.5% lard was added to 0.5% coupled DHA ethyl ester and served as the coupled DHA ethyl group, the feed was in accordance with Example 1. […]

[2] = tested on: mesenteric fat, perinephric fat, peritesticular fat, interscapular brown fat; assay: 7-week feeding study in rats: weight of mesenteric, perinephric, peritesticular and interscapular brown fat; assay type: in vivo, Sprague-Dawley male rats; settings: Example 3; 0.5% in feed plus 8.5% lard, rats 7 weeks
Protocol: as §1, §2, §3
Then the mesenteric fat, perinephric fat, peritesticular fat, and interscapular brown fat were collected and weight was determined, and the brown fat was submitted to determinations of the amount of UCP.

[3] = tested on: UCP; assay: Amount of UCP in interscapular BAT mitochondria fraction by western blotting; assay type: in vivo, rat; settings: Example 3; 0.5% in feed, rats 7 weeks; relative value, control group = 100
Protocol: as §3
Interscapular BAT extracted from rats was homogenized with 200 mM sucrose (comprising 10 mM Tris-HCl at pH of 7.5; 2 mM EDTA), centrifuged for 5 minutes at 3,100 rpm and 4° C. using a centrifugator on a cold table, and the supernatent thereof was further centrifuged for 10 minutes at 12,000 rpm and 4° C. The precipitate thus obtained (mitochondria fraction) was served as the sample.
Polyacrylamide gel electrophoresis was performed with 11% separated gel, and 50 μg sample protein were submitted to analysis from each lane. As the electrophoresis conditions, migration for 10 minutes at 100 V and then for 1 hour at 200 V were adopted. […] After rinsing, the UCP band was detected on X-ray film with a chemiluminescence method detection reagent (Dupont). The darkness of the band on the film was read with a scanner and digitized by a computer. […]

Compound: CC/C=C\C/C=C\C/C=C\C/C=C\C/C=C\C/C=C\CCC(=O)OCC [Control group, DHA ethyl ester]
- Body weight [1]: 515.8 ± 29 b g
- Brown fat per body weight [2]: 0.073 ± 0.015%
- Mesenteric fat per body weight [2]: 1.01 ± 0.20 b %
- Total intra-abdominal fat per body weight [2]: 5.29 ± 0.93 b %
- UCP [3]: 100 ± 8
